Source: ChEMBL document CHEMBL5291721, “A preclinical secondary pharmacology resource illuminates target-adverse drug reaction associations of marketed drugs” (Nat Commun, 2023)

How the values were obtained:
Adenosine receptor A2a = Adenosine receptor A2a (Homo sapiens, UniProt P29274)
[1] = target: T1, Alpha-1A adrenergic receptor (Homo sapiens, UniProt P35348); type: functional, cell-based
T1 sequence (P35348 whole entry): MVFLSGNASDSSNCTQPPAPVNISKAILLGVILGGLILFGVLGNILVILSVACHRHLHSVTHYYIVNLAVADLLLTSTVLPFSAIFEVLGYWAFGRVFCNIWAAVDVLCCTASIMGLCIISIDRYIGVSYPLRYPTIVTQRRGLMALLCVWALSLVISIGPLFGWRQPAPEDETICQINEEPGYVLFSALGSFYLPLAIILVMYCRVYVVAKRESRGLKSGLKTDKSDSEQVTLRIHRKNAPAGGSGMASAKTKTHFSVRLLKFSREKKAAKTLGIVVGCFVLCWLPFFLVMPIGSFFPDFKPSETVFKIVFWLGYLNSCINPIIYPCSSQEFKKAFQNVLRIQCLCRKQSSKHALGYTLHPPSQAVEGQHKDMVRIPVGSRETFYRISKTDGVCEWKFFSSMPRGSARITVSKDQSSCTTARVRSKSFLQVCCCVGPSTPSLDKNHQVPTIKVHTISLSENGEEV

B2 bradykinin receptor = target: T2, B2 bradykinin receptor (Homo sapiens, UniProt P30411)
T2 sequence (P30411 whole entry): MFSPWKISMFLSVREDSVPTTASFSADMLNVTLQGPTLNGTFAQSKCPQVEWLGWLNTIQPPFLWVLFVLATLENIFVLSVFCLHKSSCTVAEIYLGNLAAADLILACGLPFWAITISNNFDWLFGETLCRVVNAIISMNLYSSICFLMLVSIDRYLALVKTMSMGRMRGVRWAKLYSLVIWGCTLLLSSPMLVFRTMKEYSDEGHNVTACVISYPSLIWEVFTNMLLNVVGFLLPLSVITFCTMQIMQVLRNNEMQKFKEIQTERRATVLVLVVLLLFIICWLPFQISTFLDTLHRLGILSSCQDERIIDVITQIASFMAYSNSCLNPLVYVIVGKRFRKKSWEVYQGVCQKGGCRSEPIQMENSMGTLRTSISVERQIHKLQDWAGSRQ

D(1A) dopamine receptor = D(1A) dopamine receptor (Homo sapiens, UniProt P21728); type: functional, cell-based
Sequence of D(1A) dopamine receptor (P21728 whole entry): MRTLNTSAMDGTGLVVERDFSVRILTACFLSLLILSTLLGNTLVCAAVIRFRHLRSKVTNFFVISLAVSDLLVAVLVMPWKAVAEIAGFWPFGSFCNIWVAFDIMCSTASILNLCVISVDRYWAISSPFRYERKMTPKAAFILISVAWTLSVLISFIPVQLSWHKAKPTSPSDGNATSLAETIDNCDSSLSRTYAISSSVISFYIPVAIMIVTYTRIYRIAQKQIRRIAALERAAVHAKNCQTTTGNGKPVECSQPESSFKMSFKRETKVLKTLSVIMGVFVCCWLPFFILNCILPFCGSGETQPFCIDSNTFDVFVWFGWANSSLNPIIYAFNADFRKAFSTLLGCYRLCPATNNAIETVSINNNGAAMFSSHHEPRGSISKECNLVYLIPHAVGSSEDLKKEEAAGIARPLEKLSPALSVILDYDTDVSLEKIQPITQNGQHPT

[2] = target: Glutamate receptor ionotropic, NMDA 1 (Rattus norvegicus, UniProt P35439)
[3] = target: T3, 5-hydroxytryptamine receptor 3A (Homo sapiens, UniProt P46098); type: functional
T3 sequence (P46098 whole entry): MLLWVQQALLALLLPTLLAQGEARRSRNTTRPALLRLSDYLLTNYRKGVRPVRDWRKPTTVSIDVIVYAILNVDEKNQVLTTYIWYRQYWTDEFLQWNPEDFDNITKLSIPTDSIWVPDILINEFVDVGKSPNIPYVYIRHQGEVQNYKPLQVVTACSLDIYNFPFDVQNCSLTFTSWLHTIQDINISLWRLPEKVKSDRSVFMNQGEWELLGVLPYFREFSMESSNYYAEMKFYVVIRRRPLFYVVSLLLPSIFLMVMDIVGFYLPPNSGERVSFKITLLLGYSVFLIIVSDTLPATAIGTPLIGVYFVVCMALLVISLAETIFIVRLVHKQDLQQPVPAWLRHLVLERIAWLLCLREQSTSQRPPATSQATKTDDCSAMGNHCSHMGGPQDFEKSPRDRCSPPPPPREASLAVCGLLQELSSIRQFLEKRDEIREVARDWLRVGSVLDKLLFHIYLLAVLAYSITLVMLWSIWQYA

Motilin receptor = Motilin receptor (Homo sapiens, UniProt O43193)
Sequence of Motilin receptor (O43193 whole entry): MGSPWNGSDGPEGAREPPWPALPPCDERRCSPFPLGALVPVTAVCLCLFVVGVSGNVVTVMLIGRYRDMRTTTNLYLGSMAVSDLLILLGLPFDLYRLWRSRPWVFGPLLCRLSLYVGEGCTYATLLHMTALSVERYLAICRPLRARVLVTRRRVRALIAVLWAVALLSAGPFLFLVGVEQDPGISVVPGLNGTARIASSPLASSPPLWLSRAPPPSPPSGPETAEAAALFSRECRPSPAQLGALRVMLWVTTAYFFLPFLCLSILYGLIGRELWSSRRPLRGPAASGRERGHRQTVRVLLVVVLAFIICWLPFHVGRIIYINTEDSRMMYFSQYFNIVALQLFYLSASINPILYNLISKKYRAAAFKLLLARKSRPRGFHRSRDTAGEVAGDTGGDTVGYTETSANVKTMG

[4] = target: T4, Neuropeptide Y receptor type 1 (Homo sapiens, UniProt P25929)
T4 sequence (P25929 whole entry): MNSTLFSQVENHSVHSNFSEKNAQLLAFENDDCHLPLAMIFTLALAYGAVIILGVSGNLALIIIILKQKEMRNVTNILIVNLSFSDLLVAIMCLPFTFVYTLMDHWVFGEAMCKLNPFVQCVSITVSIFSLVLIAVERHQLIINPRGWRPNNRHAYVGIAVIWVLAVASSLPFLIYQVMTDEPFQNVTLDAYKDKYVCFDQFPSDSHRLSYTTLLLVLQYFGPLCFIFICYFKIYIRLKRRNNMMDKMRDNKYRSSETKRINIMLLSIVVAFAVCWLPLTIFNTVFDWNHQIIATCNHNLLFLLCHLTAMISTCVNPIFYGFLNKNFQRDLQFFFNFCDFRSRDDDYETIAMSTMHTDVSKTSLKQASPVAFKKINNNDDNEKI

[5] = target: T5, Prostaglandin G/H synthase 1 (Rattus norvegicus, UniProt Q63921); type: functional
T5 sequence (Q63921 whole entry): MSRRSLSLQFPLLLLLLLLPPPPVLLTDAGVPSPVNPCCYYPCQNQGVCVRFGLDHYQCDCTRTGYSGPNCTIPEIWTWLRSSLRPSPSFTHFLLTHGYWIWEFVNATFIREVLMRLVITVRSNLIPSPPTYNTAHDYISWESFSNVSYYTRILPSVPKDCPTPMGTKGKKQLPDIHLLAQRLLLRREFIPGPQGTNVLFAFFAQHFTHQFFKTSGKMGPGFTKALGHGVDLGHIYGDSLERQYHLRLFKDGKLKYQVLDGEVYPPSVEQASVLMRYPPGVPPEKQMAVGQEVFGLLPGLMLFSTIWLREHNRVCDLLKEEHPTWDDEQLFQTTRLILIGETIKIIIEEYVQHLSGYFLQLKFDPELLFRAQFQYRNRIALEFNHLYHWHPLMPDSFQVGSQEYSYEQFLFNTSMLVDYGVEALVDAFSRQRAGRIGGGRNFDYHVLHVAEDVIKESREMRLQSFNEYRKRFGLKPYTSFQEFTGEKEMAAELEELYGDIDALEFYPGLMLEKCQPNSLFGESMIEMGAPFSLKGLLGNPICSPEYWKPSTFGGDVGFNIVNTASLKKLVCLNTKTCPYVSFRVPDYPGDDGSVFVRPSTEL

[6] = target: Sodium-dependent dopamine transporter (Homo sapiens, UniProt Q01959)
Sequence of Sodium-dependent dopamine transporter (Q01959 whole entry): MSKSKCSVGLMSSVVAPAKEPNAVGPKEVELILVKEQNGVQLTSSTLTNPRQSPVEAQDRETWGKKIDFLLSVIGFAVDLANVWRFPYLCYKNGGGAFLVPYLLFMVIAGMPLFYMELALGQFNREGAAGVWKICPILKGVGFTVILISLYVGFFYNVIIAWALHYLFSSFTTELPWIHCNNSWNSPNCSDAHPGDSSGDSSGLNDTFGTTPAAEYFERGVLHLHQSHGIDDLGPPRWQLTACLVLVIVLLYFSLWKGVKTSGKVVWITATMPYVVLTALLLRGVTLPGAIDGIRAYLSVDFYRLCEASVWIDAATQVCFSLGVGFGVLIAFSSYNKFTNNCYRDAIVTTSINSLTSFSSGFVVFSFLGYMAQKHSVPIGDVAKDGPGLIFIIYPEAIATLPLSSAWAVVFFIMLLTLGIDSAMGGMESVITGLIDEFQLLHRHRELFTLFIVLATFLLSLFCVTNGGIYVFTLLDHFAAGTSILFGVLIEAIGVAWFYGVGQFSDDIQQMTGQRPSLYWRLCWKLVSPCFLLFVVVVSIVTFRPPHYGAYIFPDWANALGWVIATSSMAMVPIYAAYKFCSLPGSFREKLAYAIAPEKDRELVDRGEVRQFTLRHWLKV

[7] = target: cGMP-inhibited 3',5'-cyclic phosphodiesterase 3A (Homo sapiens, UniProt Q14432); type: functional
Sequence of cGMP-inhibited 3',5'-cyclic phosphodiesterase 3A (Q14432 whole entry): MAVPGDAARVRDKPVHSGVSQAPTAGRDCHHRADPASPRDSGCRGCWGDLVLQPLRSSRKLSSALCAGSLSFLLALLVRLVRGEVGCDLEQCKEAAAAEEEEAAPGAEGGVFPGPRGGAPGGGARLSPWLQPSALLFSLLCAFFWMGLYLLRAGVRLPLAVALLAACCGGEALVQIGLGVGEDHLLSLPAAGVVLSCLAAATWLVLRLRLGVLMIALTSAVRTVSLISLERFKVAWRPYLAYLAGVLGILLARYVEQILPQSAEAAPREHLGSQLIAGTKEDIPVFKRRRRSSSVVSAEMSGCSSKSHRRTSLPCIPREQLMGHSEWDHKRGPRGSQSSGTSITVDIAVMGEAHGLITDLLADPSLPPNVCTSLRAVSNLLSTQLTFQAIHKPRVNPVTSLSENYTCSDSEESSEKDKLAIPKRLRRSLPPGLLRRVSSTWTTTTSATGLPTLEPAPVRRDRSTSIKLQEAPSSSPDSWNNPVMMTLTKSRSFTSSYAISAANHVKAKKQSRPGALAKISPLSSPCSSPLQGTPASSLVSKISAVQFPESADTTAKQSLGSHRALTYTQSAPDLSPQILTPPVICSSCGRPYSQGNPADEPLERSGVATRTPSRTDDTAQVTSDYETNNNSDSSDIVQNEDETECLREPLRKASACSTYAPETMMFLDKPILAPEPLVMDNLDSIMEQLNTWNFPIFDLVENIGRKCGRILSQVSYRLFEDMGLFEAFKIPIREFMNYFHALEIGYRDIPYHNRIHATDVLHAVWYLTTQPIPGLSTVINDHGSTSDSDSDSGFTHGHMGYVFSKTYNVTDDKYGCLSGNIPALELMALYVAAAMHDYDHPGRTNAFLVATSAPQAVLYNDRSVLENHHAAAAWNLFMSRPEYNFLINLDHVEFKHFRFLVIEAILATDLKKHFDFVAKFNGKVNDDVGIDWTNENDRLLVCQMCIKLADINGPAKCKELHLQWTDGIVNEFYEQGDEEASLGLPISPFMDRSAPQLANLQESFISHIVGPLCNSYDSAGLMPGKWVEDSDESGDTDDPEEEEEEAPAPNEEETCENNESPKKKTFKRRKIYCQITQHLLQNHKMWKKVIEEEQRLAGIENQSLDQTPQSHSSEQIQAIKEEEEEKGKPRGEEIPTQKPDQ

D(3) dopamine receptor = D(3) dopamine receptor (Homo sapiens, UniProt P35462)
Sequence of D(3) dopamine receptor (P35462 whole entry): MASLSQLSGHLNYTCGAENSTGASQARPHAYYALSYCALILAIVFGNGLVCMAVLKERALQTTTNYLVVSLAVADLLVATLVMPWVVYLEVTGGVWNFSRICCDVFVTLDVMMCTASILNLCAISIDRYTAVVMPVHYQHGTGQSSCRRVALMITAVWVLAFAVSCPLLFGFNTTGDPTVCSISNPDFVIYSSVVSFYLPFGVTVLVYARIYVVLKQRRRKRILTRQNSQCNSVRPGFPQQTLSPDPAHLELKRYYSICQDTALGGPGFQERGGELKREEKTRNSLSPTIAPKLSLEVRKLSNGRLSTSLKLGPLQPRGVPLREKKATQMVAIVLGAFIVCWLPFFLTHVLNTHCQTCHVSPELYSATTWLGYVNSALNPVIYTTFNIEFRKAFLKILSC

[8] = target: T1, Alpha-1A adrenergic receptor; type: functional, cell-based; remark: listed apart in the source
Note: assay procedure not described here.

Sequence of Adenosine receptor A2a (P29274 whole entry): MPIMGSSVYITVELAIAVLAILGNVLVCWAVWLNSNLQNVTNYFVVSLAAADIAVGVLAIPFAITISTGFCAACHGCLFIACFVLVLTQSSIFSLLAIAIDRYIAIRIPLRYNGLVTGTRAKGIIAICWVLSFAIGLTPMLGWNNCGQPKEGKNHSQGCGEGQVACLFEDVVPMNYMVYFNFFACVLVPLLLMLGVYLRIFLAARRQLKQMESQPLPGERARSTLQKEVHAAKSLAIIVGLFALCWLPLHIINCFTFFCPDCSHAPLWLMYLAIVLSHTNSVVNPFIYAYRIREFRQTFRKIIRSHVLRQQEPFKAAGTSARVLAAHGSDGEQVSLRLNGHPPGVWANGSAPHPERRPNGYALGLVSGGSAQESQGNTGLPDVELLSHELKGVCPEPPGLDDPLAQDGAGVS

Structure (SMILES) | AC50 (Adenosine receptor A2a) [µM] | AC50 [1] [µM] | AC50 (B2 bradykinin receptor) [µM] | AC50 (D(1A) dopamine receptor) [µM] | AC50 [2] [µM] | AC50 [3] [µM] | AC50 (Motilin receptor) [µM] | AC50 [4] [µM] | AC50 [5] [µM] | AC50 [6] [µM] | AC50 [7] [µM] | AC50 (D(3) dopamine receptor) [µM] | AC50 [8] [µM]
C[C@@H]1O[C@@H](O[C@@H]2C=C3CC[C@@H]4[C@H](CC[C@]5(C)[C@@H](c6ccc(=O)oc6)CC[C@]45O)[C@@]3(C)CC2)[C@H](O)[C@H](O)[C@H]1O [PROSCILLARIDIN] | > 30 | > 30 | > 30 | > 30 | > 30 | > 30 | > 30 | > 30 | 13 | > 30 | > 30 | > 30 | > 30
C#C[C@]1(O)CC[C@H]2[C@@H]3[C@H](C)CC4=C(CCC(=O)C4)[C@H]3CC[C@@]21C [TIBOLONE] | > 30 | > 30 | > 30 | > 30 | > 30 | > 30 | > 30 | > 30 | 4.5 | 27 | > 30 | > 30 | > 30
COc1cccc(C2(O)CCCCC2CN(C)C)c1 (configuration not stated) [TRAMADOL] | > 30 | > 30 | > 30 | > 10 | > 10 | > 30 | > 10 | > 30 | > 30 | > 10 | > 30 | > 10 | > 30
Cc1nnc2n1-c1ccc(Cl)cc1C(c1ccccc1Cl)=NC2 [TRIAZOLAM] | > 30 | 14 | > 30 | > 10 | > 10 | > 30 | > 10 | > 30 | > 30 | > 30 | > 30 | > 30 | > 30
